Test results reported in patent US10287641B2, “Lactobacillus apinorum and Lactobacillus mellifer from honeybees in medical, food and feed applications” (CONCELLAE AB, priority 2014, dated 2019).

Tested on: clinical isolates of pathogenic wound bacteria and yeast
Assay: Dual culture overlay assays, whole pathogen panel and antibiotic controls
Type: cell-based
Conditions: antibiotic 30 μg; pathogen of each column not given
Protocol: Used pathogens (Table 2) were cultivated in Nutrient broth (Oxoid) at 37° C. during 24 hours prior to test in the antagonism assays.
Dual Culture Overlay Assay Antimicrobial activity was measured by using dual culture overlay assay. The Lactobacillus apinorum and Lactobacillus mellifer strains (Table 2) were put into a filter disk and placed onto supplemented MRS agar plates followed by overnight incubation at 35° C.

Row | Structure (SMILES) | diameter of the inhibition zone, antibiotic control
1 | CO/N=C(\C(=O)N[C@@H]1C(=O)N2C(C(=O)O)=C(COC(N)=O)CS[C@H]12)c1ccco1 [Cx, Cefuroxime sodium] | 28 millimetres
2 | O=C(N[C@H](CO)[C@H](O)c1ccc([N+](=O)[O-])cc1)C(Cl)Cl [Cl, Chloramphenicol] | ^S19 millimetres
